Among the data in patent US10428066B2, “Imidazo[4,5-C]pyridine and pyrrolo[2,3-C]pyridine derivatives as SSAO inhibitors” (PROXIMAGEN, LLC, priority 2013, dated 2019) are IC50 values, retold here.

Structures are written as SMILES.

The target of data set [1] is human ether a go-go related gene (hERG) K+ channel (Homo sapiens (Human), UniProt Q12809). As to the kind of experiment: hERG assay, IonWorks patch clamp electrophysiology. Format: cell-based. The settings on record: Chinese Hamster Lung cell line stably expressing hERG, maximum assay concentration 11 uM. As for the experimental part: Compounds of the invention were tested for inhibition of the human ether a go-go related gene (hERG) K^+ channel using IonWorks patch clamp electrophysiology. 8 Point concentration-response curves were generated on two occasions using 3-fold serial dilutions from the maximum assay concentration (11 uM). Electrophysiological recordings were made from a Chinese Hamster Lung cell line stably expressing the full length hERG channel. Single cell ion currents were measured in the perforated patch clamp configuration (100 ug/mL amphoterocin) at room temperature using an IonWorks Quattro instrument. The internal solution contained 140 mM KCl, 1 mM MgCl2, 1 mM EGTA and 20 mM HEPES and was buffered to pH 7.3. The external solution contained 138 mM NaCl, 2.7 mM KCl, 0.9 mM CaCl2, 0.5 mM MgCl2, 8 mM Na2HPO4 and 1.5 mM KH2PO4, and was buffered to pH 7.3. […] This sequence was repeated 5 times at a frequency of 0.25 Hz. Currents were measured from the tail step at the 5th pulse, and referenced to the holding current. Compounds were incubated for 6-7 min prior to a second measurement of the hERG signal using an identical pulse train. A minimum of 17 cells were required for each plC50 curve fit. A control compound (quinidine) was used (see Table 20 below).
Chain of human ether a go-go related gene (hERG) K+ channel (Q12809 whole entry): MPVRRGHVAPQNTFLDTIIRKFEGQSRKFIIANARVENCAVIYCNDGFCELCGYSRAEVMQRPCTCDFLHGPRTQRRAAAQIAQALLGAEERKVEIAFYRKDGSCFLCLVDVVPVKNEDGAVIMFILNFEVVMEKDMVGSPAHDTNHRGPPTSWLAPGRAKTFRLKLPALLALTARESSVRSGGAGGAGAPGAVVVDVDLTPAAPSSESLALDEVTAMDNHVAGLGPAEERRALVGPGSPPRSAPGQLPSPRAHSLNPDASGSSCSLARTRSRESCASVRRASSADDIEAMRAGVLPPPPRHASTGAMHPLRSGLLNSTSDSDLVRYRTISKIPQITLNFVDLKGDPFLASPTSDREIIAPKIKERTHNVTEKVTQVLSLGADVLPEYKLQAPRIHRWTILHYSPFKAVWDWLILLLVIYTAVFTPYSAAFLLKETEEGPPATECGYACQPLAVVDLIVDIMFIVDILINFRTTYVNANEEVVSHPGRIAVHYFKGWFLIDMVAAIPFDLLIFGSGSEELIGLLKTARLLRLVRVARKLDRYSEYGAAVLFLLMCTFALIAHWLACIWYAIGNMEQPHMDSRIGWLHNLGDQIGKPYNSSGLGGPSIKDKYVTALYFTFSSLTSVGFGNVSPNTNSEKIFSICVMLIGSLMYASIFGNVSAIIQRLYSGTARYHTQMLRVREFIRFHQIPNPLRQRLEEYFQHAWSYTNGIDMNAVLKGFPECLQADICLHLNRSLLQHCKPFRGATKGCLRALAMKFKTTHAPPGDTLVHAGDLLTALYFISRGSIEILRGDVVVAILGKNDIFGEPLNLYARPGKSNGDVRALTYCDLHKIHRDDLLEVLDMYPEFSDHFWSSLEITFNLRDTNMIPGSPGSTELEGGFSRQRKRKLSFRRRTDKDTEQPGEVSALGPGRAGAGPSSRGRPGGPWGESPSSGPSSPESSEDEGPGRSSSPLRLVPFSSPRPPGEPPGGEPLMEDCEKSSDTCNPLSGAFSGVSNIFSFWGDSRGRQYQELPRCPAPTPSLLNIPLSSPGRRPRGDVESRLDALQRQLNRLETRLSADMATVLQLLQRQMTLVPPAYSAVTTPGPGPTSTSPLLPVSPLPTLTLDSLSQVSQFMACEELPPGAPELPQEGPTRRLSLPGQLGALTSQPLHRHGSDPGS
On the technique in general: The hERG channel carries a current that helps repolarise heart muscle cells.

Data set [2] addresses purified recombinantly expressed human SSAO (Homo sapiens (Human), UniProt Q16853). As to the kind of experiment: SSAO enzyme inhibition assay (HRP-coupled hydrogen peroxide detection or 14C-benzaldehyde detection, benzylamine substrate). The settings on record: human recombinant SSAO, RT. Format: biochemical. As for the experimental part:
All primary assays were performed at RT. with purified recombinantly expressed human SSAO. Enzyme was prepared essentially as described in Öhman et al. (Protein Expression and Purification 46 (2006) 321-331). In addition, secondary- and selectivity assays were performed using SSAO prepared from various tissues or purified rat recombinant SSAO. The enzyme activity was assayed with benzylamine as substrate by measuring either benzaldehyde production, using ^14C-labeled substrate, or by utilizing the production of hydrogen peroxide in a horseradish peroxidase (HRP) coupled reaction. Briefly, test compounds were dissolved in dimethyl sulfoxide (DMSO) to a concentration of 10 mM. Dose-response measurements were assayed by either creating 1:10 serial dilutions in DMSO to produce a 7 point curve or by making 1:3 serial dilutions in DMSO to produce 11 point curves.
In a horseradish peroxidase (HRP) coupled reaction, hydrogen peroxide oxidation of 10-acetyl-3,7-dihydroxyphenoxazine produced resorufin, which is a highly fluorescent compound (Zhout and Panchuk-Voloshina. Analytical Biochemistry 253 (1997) 169-174; Amplex® Red Hydrogen Peroxide/peroxidase Assay kit, Invitrogen A22188). Enzyme and compounds in 50 mM sodium phosphate, pH 7.4 were set to pre-incubate in flat-bottomed microtiter plates for approximately 15 min before initiating the reaction by addition of a mixture of HRP, benzylamine and Amplex reagent. Benzylamine concentration was fixed at a concentration corresponding to the Michaelis constant, determined using standard procedures. Fluorescence intensity was then measured at several time points during 1-2 h, exciting at 544 nm and reading the emission at 590 nm. For the human SSAO assay final concentrations of the reagents in the assay wells were: SSAO enzyme 1 ug/ml, benzylamine 100 uM, Amplex reagent 20 uM, HRP 0.1 U/mL and varying concentrations of test compound. The inhibition was measured as % decrease of the signal compared to a control without inhibitor (only diluted DMSO). The background signal from a sample containing no SSAO enzyme was subtracted from all data points. Data was fitted to a four parameter logistic model and IC50 values were calculated using the GraphPad Prism 4 or XLfit 4 programs.
SSAO activity was assayed using 14C-labeled benzylamine and analysed by measuring radioactive benzaldehyde. In a white 96-well optiplate (Packard), 20 uL of diluted test compound was pre-incubated at room temperature with 20 uL SSAO enzyme for approximately 15 min with continuous agitation. All dilutions were made with PBS. The reaction was initiated by adding 20 uL of the benzylamine substrate solution containing [7-14C] Benzylamine hydrochloride (CFA589, GE Healthcare). The plate was incubated for 1 h as above after which the reaction was stopped by acidification (10 uL 1M aq HCl). Then 90 uL Micro Scint-E solution (Perkin-Elmer) was added to each well and the plate was continuously mixed for 15 min. Phase separation occurred instantly and activity was read in a Topcount scintillation counter (Perkin-Elmer). In the final reaction well, the human recombinant SSAO concentration was 10 ug/ml. In order to optimize sensitivity, the substrate concentration was decreased as compared to the HRP coupled assay in order to get a higher fraction of radioactive product. In the human SSAO assay, benzylamine concentration was 40 uM (0.2 uCi/mL). Data was analysed as above.

Chain of purified recombinantly expressed human SSAO (Q16853 29-763): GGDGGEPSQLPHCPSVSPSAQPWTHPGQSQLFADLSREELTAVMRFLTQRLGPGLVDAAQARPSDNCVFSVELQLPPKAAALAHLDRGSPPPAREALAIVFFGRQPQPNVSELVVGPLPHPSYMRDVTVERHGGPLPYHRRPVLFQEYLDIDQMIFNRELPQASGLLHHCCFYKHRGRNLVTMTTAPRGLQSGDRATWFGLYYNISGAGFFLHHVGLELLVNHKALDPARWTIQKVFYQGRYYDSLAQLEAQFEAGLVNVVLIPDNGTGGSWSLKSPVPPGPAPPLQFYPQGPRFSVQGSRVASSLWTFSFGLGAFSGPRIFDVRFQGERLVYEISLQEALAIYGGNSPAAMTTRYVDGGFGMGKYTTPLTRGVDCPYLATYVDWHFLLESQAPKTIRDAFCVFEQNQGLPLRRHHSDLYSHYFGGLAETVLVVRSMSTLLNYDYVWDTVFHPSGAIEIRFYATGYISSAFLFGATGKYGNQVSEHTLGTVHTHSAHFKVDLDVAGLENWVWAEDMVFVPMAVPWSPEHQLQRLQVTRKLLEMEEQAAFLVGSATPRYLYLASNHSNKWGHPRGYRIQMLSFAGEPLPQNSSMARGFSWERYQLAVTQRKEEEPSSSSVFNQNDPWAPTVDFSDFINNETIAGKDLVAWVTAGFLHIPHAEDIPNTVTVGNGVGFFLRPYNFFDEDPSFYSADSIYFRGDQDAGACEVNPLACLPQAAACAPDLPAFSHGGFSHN

With `Clc1ccc(-n2c(-c3ccc(N4CCOCC4)nn3)nc3ccncc32)cc1` [Example 4, 4-{6-[3-(4-Chlorophenyl)-3H-imidazo[4,5-c]pyridin-2-yl]pyridazin-3-yl}morpholine], in data set [1], the IC50 (usually the concentration that inhibits the measured activity by half) is 1 to 10 µM.

`Clc1ccc(-n2c(-c3ccc(N4CCOCC4)nc3)nc3ccncc32)cc1` [Example 47, 4-{5-[3-(4-Chlorophenyl)-3H-imidazo[4,5-c]pyridin-2-yl]pyridin-2-yl}morpholine]: the IC50 in data set [1] is 1 to 10 µM.

As for `Clc1ccc(-n2c(-c3cnc(N4CCOCC4)nc3)nc3ccncc32)cc1` [Example 51, 4-{5-[3-(4-Chlorophenyl)-3H-imidazo[4,5-c]pyridin-2-yl]pyrimidin-2-yl}morpholine], the IC50 in data set [1] lay within 1 to 10 µM.

Regarding `Cc1ccc(-n2c(-c3ccc(N4CCOCC4)nc3)nc3ccncc32)c(F)c1` [Example 67, 4-{5-[3-(2-Fluoro-4-methylphenyl)-3H-imidazo[4,5-c]pyridin-2-yl]pyridin-2-yl}morpholine], the IC50 in data set [1] was 1 to 10 µM.

In data set [1], `CS(=O)(=O)NC1CCN(c2ccc(-c3nc4ccncc4n3-c3ccc(Cl)cc3)cn2)CC1` [Example 88, N-(1-{5-[3-(4-Chlorophenyl)-3H-imidazo[4,5-c]pyridin-2-yl]pyridin-2-yl}piperidin-4-yl)methanesulfonamide] showed an IC50 of 1 to 10 µM.

Take `Cc1nc(N2CCOCC2)ccc1-c1nc2ccncc2n1-c1ccc(F)cc1` [Example 108, 4-{5-[3-(4-Fluorophenyl)-3H-imidazo[4,5-c]pyridin-2-yl]-6-methylpyridin-2-yl}morpholine]: the IC50 in data set [2] was in the range of 0.2 to 1.2 µM.

Turning to `CN(C)c1cc(-c2nc3ccncc3n2-c2ccc(F)cc2)ccn1` [Example 109, 4-[3-(4-Fluorophenyl)-3H-imidazo[4,5-c]pyridin-2-yl]-N,N-dimethylpyridin-2-amine], the IC50 in data set [2] is 0.2 to 1.2 µM.

`Nc1ccc(-c2nc3ccncc3n2-c2ccc(Cl)cc2)cn1` [Example 110, 5-[3-(4-Chlorophenyl)-3H-imidazo[4,5-c]pyridin-2-yl]pyridin-2-amine]: the IC50 in data set [2] is 0.2 to 1.2 µM.

As for `Cn1ccc(-c2nc3ccncc3n2-c2ccc(F)cc2)cc1=O` [Example 114, 4-[3-(4-Fluorophenyl)-3H-imidazo[4,5-c]pyridin-2-yl]-1-methyl-1,2-dihydropyridin-2-one], the IC50 in data set [2] was in the range of 0.2 to 1.2 µM.

For `O=c1cc(-c2nc3ccncc3n2-c2ccc(Cl)cc2F)ccn1C1CC1` [Example 116, 4-[3-(4-Chloro-2-fluorophenyl)-3H-imidazo[4,5-c]pyridin-2-yl]-1-cyclopropyl-1,2-dihydropyridin-2-one], the IC50 in data set [2] lay in the range of 0.05 to 0.2 µM.

As to `COCCN(C)c1ncc(-c2nc3ccncc3n2-c2ccc(C)cc2)cn1` [Example 117, N-(2-Methoxyethyl)-N-methyl-5-[3-(4-methylphenyl)-3H-imidazo[4,5-c]pyridin-2-yl]pyrimidin-2-amine], the IC50 in data set [2] lay in the range of 0.2 to 1.2 µM.

In the case of `Cc1ccc(-n2c(-c3cnc(NC4CCOCC4)nc3)nc3ccncc32)cc1` [Example 119, 5-[3-(4-Methylphenyl)-3H-imidazo[4,5-c]pyridin-2-yl]-N-(oxan-4-yl)pyrimidin-2-amine; bis(trifluoroacetic acid)], in data set [2], the IC50 lay within 0.05 to 0.2 µM.

As to `Clc1ccc(-n2c(-c3ccncc3)cc3ccncc32)cc1` [Example 120, 4-[1-(4-Chlorophenyl)-1H-pyrrolo[2,3-c]pyridin-2-yl]pyridine], the IC50 is 1 to 10 µM in data set [1] and 0.2 to 1.2 µM in data set [2].

Consider `Clc1ccc(-n2c(-c3cccnc3)cc3ccncc32)cc1` [Example 122, 3-[1-(4-Chlorophenyl)-1H-pyrrolo[2,3-c]pyridin-2-yl]pyridine], for which the figures for the IC50 in data set [1] and in data set [2] were 1 to 10 µM and 0.05 to 0.2 µM, respectively.

`CN1CCN(C(=O)c2ccc(-c3cc4ccncc4n3-c3ccc(Cl)cc3)cc2)CC1` [Example 125, 1-({4-[1-(4-Chlorophenyl)-1H-pyrrolo[2,3-c]pyridin-2-yl]phenyl}carbonyl)-4-methylpiperazine]: the IC50 in data set [2] lay within 0.2 to 1.2 µM.

In data set [1], `Clc1ccc(-n2c(-c3cnc(N4CCOCC4)nc3)cc3ccncc32)cc1` [Example 127, 4-{5-[1-(4-Chlorophenyl)-1H-pyrrolo[2,3-c]pyridin-2-yl]pyrimidin-2-yl}morpholine] returned an IC50 of 0.1 to 1 µM.

Regarding `Cc1ccc(-n2c(-c3cnc(N4CCOCC4)nc3)cc3ccncc32)cc1` [Example 130, 4-{5-[1-(4-Methylphenyl)-1H-pyrrolo[2,3-c]pyridin-2-yl]pyrimidin-2-yl}morpholine], the IC50 in data set [2] was 0.05 to 0.2 µM.

As to `c1ccc(-n2c(-c3cnc(N4CCOCC4)nc3)cc3ccncc32)cc1` [Example 131, 4-(5-{1-Phenyl-1H-pyrrolo[2,3-c]pyridin-2-yl}pyrimidin-2-yl)morpholine], the IC50 in data set [1] was 1 to 10 µM; in data set [2], 0.2 to 1.2 µM.

For the compound `O=c1cc(-c2cc3ccncc3n2-c2ccc(Cl)cc2)ccn1C1CC1` [Example 138, 4-[1-(4-Chlorophenyl)-1H-pyrrolo[2,3-c]pyridin-2-yl]-1-cyclopropyl-1,2-dihydropyridin-2-one], the IC50 in data set [1] lay in the range of 1 to 10 µM.

`Clc1ccc(-n2c(-c3cnc(NC4CCOCC4)nc3)cc3ccncc32)cc1` [Example 139, 5-[1-(4-Chlorophenyl)-1H-pyrrolo[2,3-c]pyridin-2-yl]-N-(oxan-4-yl)pyrimidin-2-amine] came in with an IC50 in data set [1] of 0.1 to 1 µM.

Compound `Clc1ccc(-n2c(-c3ccc(CN4CCOCC4)nc3)cc3ccncc32)cc1` [Example 140, 4-({5-[1-(4-Chlorophenyl)-1H-pyrrolo[2,3-c]pyridin-2-yl]pyridin-2-yl}methyl)morpholine] came in with an IC50 in data set [1] of 1 to 10 µM.

Consider `O=c1cc(-c2cc3ccncc3n2-c2ccc(Cl)cc2)cc[nH]1` [Example 142, 4-[1-(4-Chlorophenyl)-1H-pyrrolo[2,3-c]pyridin-2-yl]-1,2-dihydropyridin-2-one], for which the IC50 in data set [1] lay in the range of 1 to 10 µM; in data set [2], 0.05 to 0.2 µM.

For the compound `CCn1ccc(-c2cc3ccncc3n2-c2ccc(Cl)cc2)cc1=O` [Example 144, 4-[1-(4-Chlorophenyl)-1H-pyrrolo[2,3-c]pyridin-2-yl]-1-ethyl-1,2-dihydropyridin-2-one], the IC50 in data set [2] fell in the range of 0.05 to 0.2 µM.

Regarding `O=c1cc(-c2cc3ccncc3n2-c2ccc(Cl)cc2)cn[nH]1` [Example 146, 5-[1-(4-Chlorophenyl)-1H-pyrrolo[2,3-c]pyridin-2-yl]-2,3-dihydropyridazin-3-one], the IC50 in data set [2] lay in the range of 0.05 to 0.2 µM.

As to `Nc1cc(-c2cc3ccncc3n2-c2ccc(Cl)cc2)ccn1` [Example 147, 4-[1-(4-Chlorophenyl)-1H-pyrrolo[2,3-c]pyridin-2-yl]pyridin-2-amine], the IC50 in data set [1] was 1 to 10 µM.

Take `Clc1ccc(-n2c(-c3cncc(Cl)c3)cc3ccncc32)cc1` [Example 150, 3-Chloro-5-[1-(4-chlorophenyl)-1H-pyrrolo[2,3-c]pyridin-2-yl]pyridine]: the IC50 in data set [2] fell in the range of 0.05 to 0.2 µM.

Take `Clc1ccc(-n2c(-c3ccc(-n4cccn4)nc3)cc3ccncc32)cc1` [Example 151, 5-[1-(4-Chlorophenyl)-1H-pyrrolo[2,3-c]pyridin-2-yl]-2-(1H-pyrazol-1-yl)pyridine; bis(trifluoroacetic acid)]: the IC50 in data set [2] lay in the range of 0.05 to 0.2 µM.
